From patent publication US7504508B2, “PGD2 receptor antagonists for the treatment of inflammatory diseases” (Millennium Pharmaceuticals, Inc., priority 2002, dated 2009)

target: T1, cloned human CRTH2 receptor (Homo sapiens, UniProt Q9Y5Y4); assay: Radioligand membrane binding assay: inhibition of [3H] PGD2 binding to CRTH2 (Scintillation Proximity Assay); conditions: inhibition of [3H] PGD2 binding to membranes of HEK-293 cells stably expressing human CRTH2; SPA; 10 point curve from 10 μM; room temperature, approximately 2 hours
T1 construct: purchased Biosignal; host or cells: HEK-293 cells stably expressing human CRTH2 and G-alpha-16 (membranes)
T1 sequence (Q9Y5Y4 1-395): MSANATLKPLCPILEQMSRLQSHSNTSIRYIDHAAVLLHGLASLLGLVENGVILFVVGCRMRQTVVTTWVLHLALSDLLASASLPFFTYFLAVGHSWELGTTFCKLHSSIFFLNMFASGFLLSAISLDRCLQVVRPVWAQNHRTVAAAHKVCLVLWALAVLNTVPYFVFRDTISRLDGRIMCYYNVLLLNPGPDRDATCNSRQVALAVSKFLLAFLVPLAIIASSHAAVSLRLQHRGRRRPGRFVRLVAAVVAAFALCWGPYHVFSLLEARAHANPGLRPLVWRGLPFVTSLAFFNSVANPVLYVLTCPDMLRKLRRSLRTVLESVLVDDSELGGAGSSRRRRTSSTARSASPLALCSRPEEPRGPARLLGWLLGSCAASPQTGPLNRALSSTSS
Procedure: This radioligand membrane binding assay evaluates the ability of compounds to inhibit [^3H] Prostaglandin D2 (PGD2) binding to the cloned human CRTH2 receptor stably expressed in HEK-293 cells (expressing human CRTh2 receptor and α subunit or the heteronimeric G protein 16 were prepared by Biosignal Company) using Scintillation Proximity Assay.
A binding buffer containing 50 mM Tris-HCl (pH 7.5), 5 mM MgCl2 and 1 mM EDTA was prepared immediately prior to performing the assay. A bead/membrane solution at twice the final assay concentration comprising membranes (membranes bought from Biosignal) from the HEK-293 cells cloned to express CRTH2 receptor bound to and [3H] PGD2 at twotimes the final assay concentration were prepared and stored on ice before adding to wells. Cold PGD2 at twenty times the final assay concentration was prepared and stored on ice before adding to wells defining non-specific binding (NSB) corning plates #3653 were used for this assay.
10 mM stock concentrations of compounds in 100% DMSO were prepared and stored at room temperature. A 10 point concentration response curve was then constructed for each compound, starting at 10 μM (final assay concentration). The compounds were prepared at 40 times final assay concentrations with nine consequent-3-fold dilutions.
0.1 μl of each concentration of compound were added to the appropriate well of the 384 plate and 2 μl of cold PGD2 was added into the wells defining NSB. 20 μl of [^3H] PGD2 and then 20 μl of 2× of bead/membrane solution were then added to each well.
The plates were allowed to incubate at room temperature for approximately 2 hours and then counted on Packard Topcount using SPA tritium protocol for 1 minute/well.
The percent inhibition of PGD2 binding (PGD2 used at the KD value or lower) to the HEK-293 cell membranes was determined, the assay was always run as duplicate for n=1 for a total of n=2.

Compound | Ki
CCC(=O)N(c1ccc(Cl)cc1)[C@@H]1C[C@H](COC)N(C(=O)c2ccc(F)cc2)c2ccccc21 (racemic) [Compound B-107, (±)-Cis-N-(4-chloro-phenyl)-N-[1-(4-fluoro-benzoyl)-2-methoxymethyl-1,2,3,4-tetrahydro-quinolin-4-yl]-propionamide] | < 10 µM
CCC(=O)N(c1ccc(Cl)cc1)[C@@H]1C[C@H](c2ccccc2)N(C(=O)c2ccc(F)cc2)c2ccccc21 (racemic) [Compound B-108, (±)-Cis-N-(4-chloro-phenyl)-N-[1-(4-fluoro-benzoyl)-2-phenyl-1,2,3,4-tetrahydro-quinolin-4-yl]-propionamide] | < 10 µM
CCC(=O)N(c1ccc(Cl)cc1)[C@@H]1C[C@H](C(F)(F)F)N(C(=O)c2ccc(F)cc2)c2ccc(OC)cc21 (racemic) [Compound B-109, (±)-Cis-N-(4-chloro-phenyl)-N-[1-(4-fluoro-benzoyl)-6-methoxy-2-trifluoromethyl-1,2,3,4-tetrahydro-quinolin-4-yl]-propionamide] | < 10 µM
CCC(=O)N(c1ccc(Cl)cc1)[C@@H]1C[C@H](C(F)(F)F)N(C(=O)c2cccc(OC)c2)c2ccc(OC)cc21 (racemic) [Compound B-110, (±)-Cis-N-(4-chloro-phenyl)-N-[6-methoxy-1-(3-methoxy-benzoyl)-2-trifluoromethyl-1,2,3,4-tetrahydro-quinolin-4-yl]-propionamide] | < 10 µM
CCC(=O)N(c1ccc(Cl)cc1)[C@@H]1C[C@H](C(F)(F)F)N(C(=O)c2ccco2)c2ccc(OC)cc21 (racemic) [Compound B-111, (±)-Cis-N-(4-chloro-phenyl)-N-[1-(furan-2-carbonyl)-6-methoxy-2-trifluoromethyl-1,2,3,4-tetrahydro-quinolin-4-yl]-propionamide] | < 10 µM
CCC(=O)N(c1ccc(Cl)cc1)[C@@H]1C[C@H](Cc2ccccc2)N(C(=O)c2ccc(F)cc2)c2ccccc21 (racemic) [Compound B-112, (±)-Cis-N-[2-benzyl-1-(4-fluoro-benzoyl)-1,2,3,4-tetrahydro-quinolin-4-yl]-N-(4-chloro-phenyl)-propionamide] | < 10 µM
CC(=O)N(c1ccccc1)[C@H]1C[C@@H](C)N(C(=O)c2ccc(C(C)(C)C)cc2)c2ccccc21 [Compound A-8, (2R,4S)-cis-N-[1-(4-tert-butyl-benzoyl)-2-methyl-1,2,3,4-tetrahydro-quinolin-4-yl]-N-phenyl-acetamide] | < 60 µM
CC(=O)N(c1ccccc1)[C@H]1C[C@@H](C)N(C(=O)c2cccs2)c2ccccc21 [Compound A-11, (2R,4S)-N-[2-methyl-1-(thiophene-2-carbonyl)-1,2,3,4-tetrahydro-quinolin-4-yl]-N-phenyl-acetamide] | < 10 µM
CCC(=O)N(c1ccccc1)[C@H]1C[C@@H](C)N(C(=O)c2ccc(C3CCN(C(C)=O)CC3)cc2)c2ccccc21 [Compound A-51, (2R,4S)-cis-N-{1-[4-(1-acetyl-piperidin-4-yl)-benzoyl]-2-methyl-1,2,3,4-tetrahydro-quinolin-4-yl}-N-phenyl-propionamide] | < 10 µM
CC(=O)N(c1ccccc1)C1CC(C)N(C(=O)c2ccc(F)cc2)c2ccccc21 (stereo not shown) [Compound A-53] | < 60 µM
CC(=O)N(c1ccccc1)[C@H]1C[C@@H](C)N(C(=O)c2ccc(F)cc2)c2ccccc21 [Compound A-58] | < 60 µM
CC(=O)N(c1ccccc1)[C@H]1C[C@@H](C)N(C(=O)c2ccno2)c2ccccc21 [Compound A-70, (2R,4S)-cis-N-[1-(isoxazole-5-carbonyl)-2-methyl-1,2,3,4-tetrahydro-quinolin-4-yl]-N-phenyl-acetamide] | < 10 µM
CCC(=O)N(c1ccccc1)[C@H]1C[C@@H](C)N(C(=O)c2ccc(N3CCOCC3)cc2)c2ccccc21 [Compound A-120, (2R,4S)-cis-N-[2-methyl-1-(4-morpholin-4-yl-benzoyl)-1,2,3,4-tetrahydro-quinolin-4-yl]-N-phenyl-propionamide] | < 10 µM
